Measurements from ChEMBL document CHEMBL4840336, “Discovery, Optimization, and Structure-Activity Relationship Study of Novel and Potent RSK4 Inhibitors as Promising Agents for the Treatment of Esophageal Squamous Cell Carcinoma” (J Med Chem, 2021).
One block for each compound: values may come before it. Active and inactive are the calls of the source. The rule behind the calls is not given here.

Key:
[1] = molecular target: T1, Ribosomal protein S6 kinase alpha-1 (Homo sapiens, UniProt Q15418); assay: Inhibition of RSK1 in human TE-10 cells assessed as suppression of EIF4B phosphorylation at 1 to 10 uM measured after 24 hrs by Western blot analysis; format: cell-based; conditions: dose 1-10 µM
T1 sequence (Q15418 whole entry): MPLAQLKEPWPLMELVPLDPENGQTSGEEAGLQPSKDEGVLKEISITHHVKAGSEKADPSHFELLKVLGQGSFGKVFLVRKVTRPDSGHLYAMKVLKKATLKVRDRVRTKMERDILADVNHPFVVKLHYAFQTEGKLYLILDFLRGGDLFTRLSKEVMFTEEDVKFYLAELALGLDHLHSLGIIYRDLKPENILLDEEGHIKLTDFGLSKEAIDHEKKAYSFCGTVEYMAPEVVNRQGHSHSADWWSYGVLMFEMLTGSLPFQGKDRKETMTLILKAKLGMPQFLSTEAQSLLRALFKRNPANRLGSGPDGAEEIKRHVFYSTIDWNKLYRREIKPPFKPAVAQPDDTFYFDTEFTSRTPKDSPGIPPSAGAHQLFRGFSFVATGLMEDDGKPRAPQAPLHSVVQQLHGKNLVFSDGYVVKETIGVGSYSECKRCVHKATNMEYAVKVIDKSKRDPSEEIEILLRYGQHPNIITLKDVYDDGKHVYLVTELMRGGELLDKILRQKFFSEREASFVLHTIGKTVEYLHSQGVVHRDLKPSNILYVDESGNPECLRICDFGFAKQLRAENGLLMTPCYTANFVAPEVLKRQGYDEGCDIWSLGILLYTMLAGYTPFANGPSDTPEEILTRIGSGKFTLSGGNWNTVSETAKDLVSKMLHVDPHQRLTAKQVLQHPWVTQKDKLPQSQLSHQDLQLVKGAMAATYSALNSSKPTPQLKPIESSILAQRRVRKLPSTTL

[2] = molecular target: T1, Ribosomal protein S6 kinase alpha-1; assay: Inhibition of RSK1 in human TE-10 cells assessed as suppression of P27KIP1 phosphorylation at 1 to 10 uM measured after 24 hrs by Western blot analysis; format: cell-based; conditions: dose 1-10 µM
[3] = molecular target: T2, Ribosomal protein S6 kinase alpha-3 (Homo sapiens, UniProt P51812); assay: Inhibition of RSK2 in human TE-10 cells assessed as suppression of creb-phosphorylation at 1 to 10 uM measured after 24 hrs by Western blot analysis; format: cell-based; conditions: dose 1-10 µM
T2 sequence (P51812 whole entry): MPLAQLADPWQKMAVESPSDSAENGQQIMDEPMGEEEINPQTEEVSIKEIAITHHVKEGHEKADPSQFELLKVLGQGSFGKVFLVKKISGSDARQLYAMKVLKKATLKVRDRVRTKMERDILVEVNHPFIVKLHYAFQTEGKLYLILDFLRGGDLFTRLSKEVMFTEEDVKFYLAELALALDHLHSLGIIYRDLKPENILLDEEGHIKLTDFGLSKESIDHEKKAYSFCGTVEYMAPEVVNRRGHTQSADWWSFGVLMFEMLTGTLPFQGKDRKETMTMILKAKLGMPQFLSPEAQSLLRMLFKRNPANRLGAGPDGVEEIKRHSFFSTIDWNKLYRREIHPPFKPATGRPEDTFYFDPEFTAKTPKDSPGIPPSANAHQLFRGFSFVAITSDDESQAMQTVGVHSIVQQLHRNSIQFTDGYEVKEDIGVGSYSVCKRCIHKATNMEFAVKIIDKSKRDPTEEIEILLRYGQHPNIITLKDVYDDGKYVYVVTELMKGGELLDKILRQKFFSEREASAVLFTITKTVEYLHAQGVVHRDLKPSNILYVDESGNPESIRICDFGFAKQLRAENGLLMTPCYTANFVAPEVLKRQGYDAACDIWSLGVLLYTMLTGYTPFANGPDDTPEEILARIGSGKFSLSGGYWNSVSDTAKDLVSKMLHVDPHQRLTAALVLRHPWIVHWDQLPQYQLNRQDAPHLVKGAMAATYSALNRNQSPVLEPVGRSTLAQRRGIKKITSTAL

[4] = molecular target: T2, Ribosomal protein S6 kinase alpha-3; assay: Inhibition of RSK2 in human TE-10 cells assessed as suppression of HSP27 at residue 32 phosphorylation at 1 to 10 uM measured after 24 hrs by Western blot analysis; format: cell-based; conditions: dose 1-10 µM
[5] = molecular target: T2, Ribosomal protein S6 kinase alpha-3; assay: Inhibition of RSK2 in human TE-10 cells assessed as suppression of HSP27 at residue 33 phosphorylation at 1 to 10 uM measured after 24 hrs by Western blot analysis; format: cell-based; conditions: dose 1-10 µM
[6] = molecular target: T3, Ribosomal protein S6 kinase alpha-2 (Homo sapiens, UniProt Q15349); assay: Inhibition of RSK3 in human TE-10 cells assessed as suppression of c-fos phosphorylation at 1 to 10 uM measured after 24 hrs by Western blot analysis; format: cell-based; conditions: dose 1-10 µM
T3 sequence (Q15349 whole entry): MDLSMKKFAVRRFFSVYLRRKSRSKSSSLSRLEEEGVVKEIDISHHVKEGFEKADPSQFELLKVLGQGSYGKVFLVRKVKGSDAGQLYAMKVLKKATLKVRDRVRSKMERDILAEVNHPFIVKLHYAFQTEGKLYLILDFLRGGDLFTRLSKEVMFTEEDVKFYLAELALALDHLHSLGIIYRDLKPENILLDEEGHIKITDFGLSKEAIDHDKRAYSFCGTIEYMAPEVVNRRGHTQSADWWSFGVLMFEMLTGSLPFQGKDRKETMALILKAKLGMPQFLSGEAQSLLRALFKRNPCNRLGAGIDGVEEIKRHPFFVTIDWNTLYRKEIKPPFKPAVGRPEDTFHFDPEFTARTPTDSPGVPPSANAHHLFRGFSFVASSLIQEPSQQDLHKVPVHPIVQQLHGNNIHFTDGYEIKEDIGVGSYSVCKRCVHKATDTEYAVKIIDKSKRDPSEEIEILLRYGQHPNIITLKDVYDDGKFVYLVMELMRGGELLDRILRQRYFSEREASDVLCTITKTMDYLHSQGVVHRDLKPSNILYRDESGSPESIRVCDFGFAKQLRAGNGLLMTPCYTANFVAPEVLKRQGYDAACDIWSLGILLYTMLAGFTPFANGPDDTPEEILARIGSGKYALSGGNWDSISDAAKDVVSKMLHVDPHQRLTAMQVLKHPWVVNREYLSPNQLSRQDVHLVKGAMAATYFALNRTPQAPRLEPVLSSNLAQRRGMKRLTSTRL

[7] = molecular target: T3, Ribosomal protein S6 kinase alpha-2; assay: Inhibition of RSK3 in human TE-10 cells assessed as suppression of HistoneH3 phosphorylation at residue 34 at 1 to 10 uM measured after 24 hrs by Western blot analysis; format: cell-based; conditions: dose 1-10 µM
[8] = molecular target: T3, Ribosomal protein S6 kinase alpha-2; assay: Inhibition of RSK3 in human TE-10 cells assessed as suppression of HistoneH3 phosphorylation at residue 35 at 1 to 10 uM measured after 24 hrs by Western blot analysis; format: cell-based; conditions: dose 1-10 µM
[9] = molecular target: T1, Ribosomal protein S6 kinase alpha-1; assay: Inhibition of RSK1 (unknown origin) at 100 nM relative to control
[10] = molecular target: T2, Ribosomal protein S6 kinase alpha-3; assay: Inhibition of RSK2 (unknown origin) at 100 nM relative to control
[11] = molecular target: T3, Ribosomal protein S6 kinase alpha-2; assay: Inhibition of RSK3 (unknown origin) at 100 nM relative to control
TE-10 [12] = assay: Inhibition of cell invasion in human TE-10 cells measured after 24 hrs by Giemsa staining based transwell invasion assay; format: functional; conditions: TE-10, 24 h
TE-10 [13] = assay: Antiproliferative activity against human TE-10 cells assessed as inhibition of cell proliferation measured up to 48 hrs by CCK-8 assay; format: functional, cell-based
TE-10 [14] = assay: Antitumor activity against human TE-10 cells xenografed in nude mouse assessed as tumor growth inhibition at 25 mg/kg, ip administered for 20 consecutive days by caliper method relative to control; format: functional; conditions: TE-10, ip, 480 h, time 20 day, read-out: TGI
TE-10 [15] = assay: Antitumor activity against human TE-10 cells xenografed in nude mouse assessed as tumor growth inhibition at 50 mg/kg, ip administered for 20 consecutive days by caliper method relative to control; format: functional; conditions: TE-10, ip, 480 h, time 20 day, read-out: TGI
Mus musculus [16] = assay: In vivo inhibition of RSK4 in nude mouse xenografted with human TE-10 cells assessed as suppression of RPS6 phosphorylation at 25 to 50 mg/kg, ip administered for 20 consecutive days; format: functional, organism-based; conditions: dose lower […], dose upper 50.0 mg/kg, time 20.0 day
Mus musculus [17] = assay: In vivo inhibition of RSK4 in nude mouse xenografted with human TE-10 cells assessed as suppression of GSK3beta phosphorylation at 25 to 50 mg/kg, ip administered for 20 consecutive days; format: functional, organism-based; conditions: dose lower […], dose upper 50.0 mg/kg, time 20.0 day
[18] = Toxicity in nude mouse xenografted with human TE-10 cells assessed as effect on body weight loss at 25 to 50 mg/kg, ip administered for 20 consecutive days; format: organism-based; conditions: in vivo, 480 h, dose 25-50 mg/kg, time 20 day
[19] = Toxicity in nude mouse xenografted with human TE-10 cells assessed as effect on organ damage at 25 to 50 mg/kg, ip administered for 20 consecutive days; format: organism-based; conditions: in vivo, 480 h, dose 25-50 mg/kg, time 20 day
[20] = Toxicity in nude mouse xenografted with human TE-10 cells assessed as morphological changes in liver at 25 to 50 mg/kg, ip administered for 20 consecutive days by hematoxylin-eosin staining based analysis; format: organism-based; conditions: in vivo, 480 h, dose 25-50 mg/kg, time 20 day
[21] = Toxicity in nude mouse xenografted with human TE-10 cells assessed as morphological changes in lung at 25 to 50 mg/kg, ip administered for 20 consecutive days by hematoxylin-eosin staining based analysis; format: organism-based; conditions: in vivo, 480 h, dose 25-50 mg/kg, time 20 day
[22] = Toxicity in nude mouse xenografted with human TE-10 cells assessed as morphological changes in kidney at 25 to 50 mg/kg, ip administered for 20 consecutive days by hematoxylin-eosin staining based analysis; format: organism-based; conditions: in vivo, 480 h, dose 25-50 mg/kg, time 20 day
[23] = Toxicity in nude mouse xenografted with human TE-10 cells assessed as morphological changes in heart at 25 to 50 mg/kg, ip administered for 20 consecutive days by hematoxylin-eosin staining based analysis; format: organism-based; conditions: in vivo, 480 h, dose 25-50 mg/kg, time 20 day
[24] = Clearance in iv dosed Sprague-Dawley rat; format: ADME, organism-based; conditions: in vivo
[25] = Half life in iv dosed Sprague-Dawley rat; format: ADME, organism-based; conditions: in vivo
[26] = Volume of distribution at steady state in iv dosed Sprague-Dawley rat; format: ADME, organism-based; conditions: in vivo, read-out: Vdss
[27] = molecular target: T1, Ribosomal protein S6 kinase alpha-1; assay: Inhibition of full length recombinant His-tagged human RSK1 expressed in baculovirus expression system using biotin-labelled AGAGRSRHSSYPAGT-OH as substrate in presence of ATP
[28] = molecular target: T2, Ribosomal protein S6 kinase alpha-3; assay: Inhibition of full length recombinant His-tagged human RSK2 expressed in baculovirus expression system using biotin-labelled AGAGRSRHSSYPAGT-OH as substrate in presence of ATP
[29] = molecular target: T3, Ribosomal protein S6 kinase alpha-2; assay: Inhibition of full length recombinant GST-tagged human RSK3 expressed in insect cell using biotin-labelled AGAGRSRHSSYPAGT-OH as substrate in presence of ATP

inhibition [1]: inactive
inhibition [2]: inactive
inhibition [3]: inactive
inhibition [4]: inactive
inhibition [5]: inactive
inhibition [6]: inactive
inhibition [7]: inactive
inhibition [8]: inactive
inhibition [9]: > 90%
inhibition [10]: > 90%
inhibition [11]: > 90%
IC50 (TE-10 [12]): 983 nM
clearance [24]: 67.5 mL/min/kg
half-life [25]: 55.2 min
Vd [26]: 1.28 L/kg
Structure (SMILES): CC(C)C1OC(=O)N(C2CCCC2)c2nc(Nc3cc(F)c(O)c(F)c3)ncc21 (centres undefined)
IC50 (TE-10 [13]; TE-10, 48 h): 570 nM
inhibition (TE-10 [13]; time hrs <=48): Dose-Dependent Effect
inhibition in vivo at 25 mg/kg (TE-10 [14]): 73.4%
inhibition in vivo at 50 mg/kg (TE-10 [15]): 48.7%
inhibition (Mus musculus [16]): inactive
inhibition (Mus musculus [17]): inactive
Activity [18]: Non-Toxic
Activity [19]: Non-Toxic
Activity [20]: Non-Toxic
Activity [21]: Non-Toxic
Activity [22]: Non-Toxic
Activity [23]: Non-Toxic

IC50 [27]: 5 nM
IC50 [28]: 6 nM
IC50 [29]: 13 nM
Structure (SMILES): Oc1c(F)cc(-c2cnccc2-c2ccc(N3CCOCC3)cc2)cc1F

Structure (SMILES): CC(C)CCN1c2nc(Nc3cc(F)c(O)c(F)c3)ncc2N(C)C(=O)C1C (centres undefined)
inhibition in vivo at 50 mg/kg (TE-10 [15]): 41.6%

IC50 [27]: 6 nM
IC50 [28]: 4 nM
IC50 [29]: 4 nM
Structure (SMILES): CN1CCN(c2ccc(-c3ccncc3-c3cc(F)c(O)c(F)c3)cc2)CC1
